# Test results as given in patent US7875638B2, “Synthesis of epothilones, intermediates thereto, analogues and uses thereof” (Sloan-Kettering Institute for Cancer Research, priority 2002, dated 2011).
# Read-outs that look alike come from different tables or passages of the source.
# Key:
# CCRF-CEM/Taxol = type: cell-based, human; details: Homo sapiens, CCRF-CEM, 72 h
# H929 = assay: XTT cell growth inhibition, H929; type: cell-based; details: Homo sapiens, NCI-H929, read-out: IC50 (nM), H929
# HS-27A = assay: XTT cell growth inhibition, HS-27A; type: cell-based; details: Homo sapiens, read-out: IC50 (nM), HS-27A
# HS-5 = assay: XTT cell growth inhibition, HS-5; type: cell-based; details: Homo sapiens, HS5, read-out: IC50 (nM), HS-5
# HCT-116 = assay: XTT cell growth inhibition, HCT-116; type: cell-based; details: Homo sapiens, HCT-116, read-out: IC50 (nM), HCT-116
# MDA MB435 = assay: XTT cell growth inhibition, MDA MB435; type: cell-based; details: Homo sapiens, MDA-MB-435, read-out: IC50 (nM), MDA MB435
# Ovcar-3 = assay: XTT cell growth inhibition, Ovcar-3; type: cell-based; details: Homo sapiens, OVCAR-3, read-out: IC50 (nM), Ovcar-3
# [1] = test system: RPMI-8226 (human multiple myeloma cell line); assay: Global gene expression (Affymetrix chip AU133 2.0); type: cell-based
# OPM-2 myeloma cells = assay: Cell cycle analysis (propidium iodide DNA staining), OPM-2; type: cell-based, human
# Text: FIG. 95 is cell cycle analysis as determined by Propidium iodide DNA staining. […] The two drugs induced the same patter of cell cycle arrest.
# RPMI8226 myeloma cells = assay: Pulse exposure, washout and cell count; type: cell-based, human
# primary CD138 MM cells = assay: Apoptosis of primary myeloma cells; type: cell-based, human; details: cells obtained from patient marrow
# caspase 3 = assay: Caspase 3 activation by Western blot; type: cell-based, human; details: myeloma cells
# Text: It is not clear whether caspase is involved in this process. Firstly, we investigated the activation of caspase 3, an effector caspase in the caspase pathway, in myeloma cells, by Western blot. […] Immunohistochemical staining of CAG myeloma cells using antibody specific to cleaved caspase-3 was used to show cytoplasmic and perinuclear localization features in apoptotic cells. […] Secondly, we attempted to assay the activity of caspase 8 and 9, initiator caspase in the caspase pathway, by fluorometric method. […] Note that increased caspase 9 activity was more prominent than caspase 8. The signals triggering the activation of caspase 8 or 9 are actively under investigation.
# [2] = test system: myeloma cell lines (RPMI8226, CAG); assay: XTT cell proliferation, myeloma cell lines; type: cell-based, human; details: Homo sapiens, RPMI-8226, read-out: IC50, myeloma cell lines (RPMI8226, CAG)
# CAG myeloma cell lines = assay: Annexin V staining, CAG; type: cell-based, human; details: 24 hours treatment
# Text: In early apoptotic cells, the membrane phospholipids phosphatidylserine (PS) is translocated from the inner to the outer leaflet of the plasma membrane, thereby exposing PS to the external cellular environment. Annexin V is a 35-36 kD Ca^2+ dependent phospholipids-binding protein that has a high affinity for PS, and binds to cells with exposed PS. In conjunction with a vital dye such as 7-amino-actinomycin (7-AAD) staining dead cells, this assay allows to identify early apoptotic cells. […] Note that X-axis is Annexin staining and Y-axis is 7-AAD staining.
# [3] = test system: human mammary carcinoma MX-1 xenograft; details: mouse, in vivo
# in vitro = details: human, s9
# [4] = test system: human mammary carcinoma MX-1 xenograft; assay: MX-1 xenograft in nude mice; details: mouse, in vivo
# CAG myeloma cells = assay: Disseminated CAG xenograft myeloma mice; details: 20 mg/kg
# Method: 10×10^6 CAG myeloma cells engineered with Luc-eGFP-TK fusion gene were injected intravenously into the mouse-tail vein, and the treatment was started when decent myeloma cells implantation was detected by bioluminescence imaging on day 7.
# [5] = test system: Human marrow stromal cell lines, HS-27A and HS-5; assay: XTT cell proliferation, normal stromal cells; details: read-out: IC50, stromal lines HS-27A and HS-5
# Text: Human marrow stromal cell lines, HS-27A and HS-5 immortalized by E6/E7 genes, have normal marrow stromal function, which support stem cell self-renewal, and proliferation.
structure (smiles),measurement,setting,value
"C/C1=C/CC(/C(C)=C/c2csc(C)n2)OC(=O)C[C@H](O)C(C)(C)C(=O)[C@H](C)[C@@H](O)[C@@H](C)CCC1 (some centres unmarked) [Compound 1, 12,13-desoxyepothilone B, reference compound]",IC50,"CCRF-CEM/Taxol; read-out: IC50 (μM), CCRF-CEM/Taxol",0.0057 µM
same,IC50,"CCRF-CEM/Taxol; read-out: IC50, C/Taxol (μM)",0.0046 µM
same,IC50,"CCRF-CEM/Taxol; read-out: IC50, CCRF-CEM/Taxol",0.0046 µM
same,IC50,H929,42.8 ± 4.5 nM
same,IC50,HS-27A,100 ± 10 nM
same,IC50,HS-5,100 ± 8 nM
same,IC50,HCT-116,7.5 ± 3.1 nM
same,IC50,MDA MB435,7.8 ± 4.2 nM
same,IC50,Ovcar-3,14 ± 3.6 nM
same,"Increase in expression, OAS2",[1]; 6 hrs or 18 hrs of dEpoB treatment,+2
same,"Increase in expression, MX1",[1]; 18 hrs of dEpoB treatment,+2.3
same,Cell cycle arrest,OPM-2 myeloma cells,arrested in G2M phase starting from 6 hours and absolutely blocked at 24 hours
same,Decrease of the number of cells from input,"RPMI8226 myeloma cells; 4-8 hrs exposure, washout, incubation up to 48 hrs",slowed cell expansion
same,Cell death after pulse exposure,RPMI8226 myeloma cells; 24 hrs exposure,all cells being dead by 48 hrs
same,Decrease of tumor cell numbers,"RPMI8226 myeloma cells; one hour exposure, washout, 48 hrs",reduced but did not prevent tumor cell expansion
same,Tumor apoptosis within 24 hrs,primary CD138 MM cells,not
same,Cleaved caspase 3 (Western blot),caspase 3,increased 17 kd cleaved caspase 3
same,IC50,[2],36.7 to 61.3 nM
same,Apoptosis (Annexin V / 7-AAD),CAG myeloma cell lines,majority of cells either enter apoptosis or are dead
same,Decrease in body weight without lethality,[3],31%
same,half-life,in vitro,1 ± 0.1 h
same,Changes of body weight (%) on day 4 after stopping administration,[4],−25.3 ± 2.1%
same,Changes of body weight (%) on day 8 after stopping administration,[4],−9.1 ± 4.1%
same,Survival after transplanting CAG cells (Kaplan-Meier),CAG myeloma cells,≤ 50 days
same,Survival versus controls,CAG myeloma cells; intraperitoneal,no difference in survival
same,IC50,[5],90 to 100 nM
